# Test results reported in US10344060B2 (priority 2013, dated 2019).
# pIC50: −log10 of the molar value.
# Biological target: hNav1.7 (Homo sapiens, UniProt Q15858)
# Assay: cell-based
# Type: cell-based
# Details: for Nav1.4/Nav1.7 / Nav1.5/Nav1.7: ratio of PX tonic IC50 values, Table 11
# Chain of hNav1.7 (Q15858 whole entry): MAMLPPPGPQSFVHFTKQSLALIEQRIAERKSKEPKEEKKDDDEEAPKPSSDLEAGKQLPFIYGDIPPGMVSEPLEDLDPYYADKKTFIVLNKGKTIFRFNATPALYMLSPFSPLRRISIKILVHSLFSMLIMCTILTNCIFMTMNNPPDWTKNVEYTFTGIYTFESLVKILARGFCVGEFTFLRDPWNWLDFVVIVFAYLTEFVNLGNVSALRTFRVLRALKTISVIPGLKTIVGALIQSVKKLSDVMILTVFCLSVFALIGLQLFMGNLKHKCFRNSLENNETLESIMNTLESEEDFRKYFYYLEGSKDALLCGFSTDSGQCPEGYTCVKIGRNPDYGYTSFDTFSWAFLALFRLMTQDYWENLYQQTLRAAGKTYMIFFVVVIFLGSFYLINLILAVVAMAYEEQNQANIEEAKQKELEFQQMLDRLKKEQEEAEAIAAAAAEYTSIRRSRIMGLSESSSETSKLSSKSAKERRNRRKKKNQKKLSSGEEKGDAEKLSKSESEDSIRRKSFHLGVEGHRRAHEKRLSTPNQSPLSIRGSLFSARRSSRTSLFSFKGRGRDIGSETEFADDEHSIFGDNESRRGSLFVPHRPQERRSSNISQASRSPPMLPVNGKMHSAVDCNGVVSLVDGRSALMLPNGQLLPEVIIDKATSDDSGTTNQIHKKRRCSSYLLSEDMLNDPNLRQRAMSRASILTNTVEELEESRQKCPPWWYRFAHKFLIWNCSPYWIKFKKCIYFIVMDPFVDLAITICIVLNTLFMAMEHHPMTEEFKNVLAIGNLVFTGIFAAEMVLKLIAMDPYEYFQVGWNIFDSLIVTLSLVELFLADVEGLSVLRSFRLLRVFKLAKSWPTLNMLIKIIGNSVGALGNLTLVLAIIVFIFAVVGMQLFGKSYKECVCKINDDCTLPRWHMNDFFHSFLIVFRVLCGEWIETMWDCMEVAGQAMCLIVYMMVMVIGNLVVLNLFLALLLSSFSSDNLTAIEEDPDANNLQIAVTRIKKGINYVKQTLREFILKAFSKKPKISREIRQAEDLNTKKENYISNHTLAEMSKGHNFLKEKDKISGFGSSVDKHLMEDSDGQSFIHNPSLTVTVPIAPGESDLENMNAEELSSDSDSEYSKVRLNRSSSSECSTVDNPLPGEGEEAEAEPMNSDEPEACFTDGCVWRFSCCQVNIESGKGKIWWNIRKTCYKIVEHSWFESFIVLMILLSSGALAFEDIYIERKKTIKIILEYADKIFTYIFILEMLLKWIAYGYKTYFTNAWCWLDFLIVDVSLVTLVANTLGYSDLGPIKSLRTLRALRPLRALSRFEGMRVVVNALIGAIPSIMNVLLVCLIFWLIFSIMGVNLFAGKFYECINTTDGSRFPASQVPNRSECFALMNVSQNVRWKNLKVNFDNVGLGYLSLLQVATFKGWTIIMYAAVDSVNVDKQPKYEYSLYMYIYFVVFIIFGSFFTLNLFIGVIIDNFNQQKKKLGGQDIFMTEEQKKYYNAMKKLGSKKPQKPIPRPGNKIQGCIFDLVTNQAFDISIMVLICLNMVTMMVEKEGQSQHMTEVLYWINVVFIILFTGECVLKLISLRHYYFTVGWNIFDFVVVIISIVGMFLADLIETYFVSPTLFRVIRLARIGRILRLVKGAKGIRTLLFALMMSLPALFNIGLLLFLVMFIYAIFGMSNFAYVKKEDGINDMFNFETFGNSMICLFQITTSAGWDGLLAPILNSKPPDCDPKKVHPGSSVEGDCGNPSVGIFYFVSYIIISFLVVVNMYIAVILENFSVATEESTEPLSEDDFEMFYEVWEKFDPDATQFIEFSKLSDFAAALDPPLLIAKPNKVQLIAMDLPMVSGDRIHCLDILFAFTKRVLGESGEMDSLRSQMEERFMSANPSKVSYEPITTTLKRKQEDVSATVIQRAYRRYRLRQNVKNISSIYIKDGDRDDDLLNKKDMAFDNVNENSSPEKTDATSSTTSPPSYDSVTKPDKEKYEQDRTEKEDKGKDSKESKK
Structure (SMILES),Nav1.4/Nav1.7,"pIC50 (Table 12, PatchXpress, tonic block, read-out: PX hNav1.7 Tonic IC50)",Nav1.5/Nav1.7
CCCC[C@@H]1NC(=O)[C@H](Cc2c[nH]c3ccccc23)NC(=O)[C@H](CCCCN)NC(=O)[C@H](CCC(N)=O)NC(=O)[C@@H](NC(=O)[C@H](Cc2ccc(O)cc2)NC(=O)[C@@H](N)CC#N)CSSC[C@@H]2NC(=O)[C@@H]3CSSC[C@@H](C(=O)N[C@@H](CCCNC(=N)N)C(=O)N[C@@H](CCCCN)C(=O)N[C@@H](CCC(=O)O)C(=O)N[C@H](C(N)=O)[C@@H](C)CC)NC(=O)[C@H](Cc4c[nH]c5ccccc45)NC(=O)[C@H](CC(C)C)NC(=O)[C@H](CCCCN)NC(=O)[C@H](CSSC[C@H](NC(=O)[C@H]([C@@H](C)O)NC(=O)[C@H](Cc4c[nH]c5ccccc45)NC1=O)C(=O)N[C@@H](CC(=O)O)C(=O)N[C@@H](CCCCNC(=O)CCOCCOCCOCCOCCOCCOCCOCCOCCOCCOCCOCCOCCN)C(=O)N[C@@H](CCCCN)C(=O)N[C@@H](CCCNC(=N)N)C(=O)N[C@@H](C)C(=O)N3)NC(=O)[C@H](CCCNC(=N)N)NC(=O)[C@H](CC(C)C)NC(=O)CNC(=O)[C@H](CCC(=O)O)NC2=O [compound 565],75,–,–
C#CC[C@H](N)C(=O)N[C@@H](Cc1ccc(O)cc1)C(=O)N[C@H]1CSSC[C@@H]2NC(=O)[C@@H]3CSSC[C@@H](C(=O)N[C@@H](CCCNC(=N)N)C(=O)N[C@@H](CCCCN)C(=O)N[C@@H](CCC(=O)O)C(=O)N[C@H](C(N)=O)[C@@H](C)CC)NC(=O)[C@H](Cc4c[nH]c5ccccc45)NC(=O)[C@H](CC(C)C)NC(=O)[C@H](CCCCN)NC(=O)[C@H](CSSC[C@H](NC(=O)[C@H]([C@@H](C)O)NC(=O)[C@H](Cc4c[nH]c5ccccc45)NC(=O)[C@H](CCCC)NC(=O)[C@H](Cc4c[nH]c5ccccc45)NC(=O)[C@H](CCC(N)=O)NC(=O)[C@H](CCC(N)=O)NC1=O)C(=O)N[C@@H](CC(=O)O)C(=O)N[C@@H](CO)C(=O)N[C@@H](CCCCN)C(=O)N[C@@H](CCCNC(N)=O)C(=O)N[C@@H](C)C(=O)N3)NC(=O)[C@H](CCCNC(=N)N)NC(=O)[C@H](CC(C)C)NC(=O)CNC(=O)[C@H](CCC(=O)O)NC2=O [compound 807],–,7.68,–
CCCC[C@@H]1NC(=O)[C@H](Cc2c[nH]c3ccccc23)NC(=O)[C@H](CCCCN)NC(=O)[C@H](CCC(N)=O)NC(=O)[C@@H](NC(=O)[C@H](Cc2ccc(O)cc2)NC(=O)[C@H](N)CC(C)C)CSSC[C@@H]2NC(=O)[C@@H]3CSSC[C@@H](C(=O)N[C@@H](CCCNC(=N)N)C(=O)N[C@@H](CCCCN)C(=O)N[C@H](C(=O)N[C@H](C(N)=O)[C@@H](C)CC)[C@@H](C)CC)NC(=O)[C@H](Cc4c[nH]c5ccccc45)NC(=O)[C@H](CC(C)C)NC(=O)[C@H](CCCCN)NC(=O)[C@H](CSSC[C@H](NC(=O)[C@H]([C@@H](C)O)NC(=O)[C@H](Cc4c[nH]c5ccccc45)NC1=O)C(=O)N[C@@H](CC(=O)O)C(=O)N[C@@H](CO)C(=O)N[C@@H](CCCCN)C(=O)N[C@@H](CCCNC(=N)N)C(=O)N[C@@H](C)C(=O)N3)NC(=O)[C@H](CCCNC(=N)N)NC(=O)[C@H](CC(C)C)NC(=O)CNC(=O)[C@H](CCC(=O)O)NC2=O [compound 373],190,–,2704
CCCC[C@@H]1NC(=O)[C@H](Cc2c[nH]c3ccccc23)NC(=O)[C@H](CCCCN)NC(=O)[C@H](CCC(N)=O)NC(=O)[C@@H](NC(=O)[C@H](Cc2ccc(O)cc2)NC(=O)[C@H](CCC)NC(=O)[C@@H](N)CC(C)C)CSSC[C@@H]2NC(=O)[C@@H]3CSSC[C@@H](C(=O)N[C@@H](CCCNC(=N)N)C(=O)N[C@@H](CCCCN)C(=O)N[C@@H](CCC(=O)O)C(=O)N[C@H](C(N)=O)[C@@H](C)CC)NC(=O)[C@H](Cc4c[nH]c5ccccc45)NC(=O)[C@H](CC(C)C)NC(=O)[C@H](CCCCN)NC(=O)[C@H](CSSC[C@H](NC(=O)[C@H]([C@@H](C)O)NC(=O)[C@H](Cc4c[nH]c5ccccc45)NC1=O)C(=O)N[C@@H](CC(=O)O)C(=O)N[C@@H](CO)C(=O)N[C@@H](CCCCN)C(=O)N[C@@H](CCCNC(=N)N)C(=O)N[C@@H](CCCCNC(=O)CCOCCOCCOCCOCCOCCOCCOCCOCCOCCOCCOCCOCCN)C(=O)N3)NC(=O)[C@H](CCCNC(=N)N)NC(=O)[C@H](CC(C)C)NC(=O)CNC(=O)[C@H](CCC(=O)O)NC2=O [compound 470],34,–,372
